These results are taken from US8394848B2, “Compounds that modulate intracellular calcium” (Calcimedica, Inc., priority 2008, dated 2013).

Structures are written as SMILES.

The test system of the test is JR251 or RBL cells. Nature of the test: Store-operated calcium entry, either JR251 or RBL cells, or both. The format is cell-based. A digest of the protocol:
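FLIPR calcium-entry readout in fluo-4-loaded cells held in Ca2+-free HBSS before calcium add-back. For RBL-2H3, store depletion used thapsigargin for 25 min after a 5 min compound pre-incubation, and IC50 was based on the 7 s Upslope. For Orai1/STIM1 stable cells, compound was pre-incubated 30 min and IC50 was based on Peak-Basal.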
Turning to `Cn1nc(C(=O)Nc2scc(-c3ccc(Cl)cc3)c2C(=O)O)cc1-c1ccco1` [4-(4-chlorophenyl)-2-(5-(furan-2-yl)-1-methyl-1H-pyrazole-3-carboxamido)thiophene-3-carboxylic acid], the 50% inhibitory concentration (IC50) (usually the point on the concentration scale where inhibition reaches its midpoint) was under 10 µM.
For `O=C(Nc1scc(-c2ccc(Cl)cc2)c1C(=O)O)c1ncc(C(F)(F)F)cn1` [4-(4-chlorophenyl)-2-(5-(trifluoromethyl)pyrimidine-2-carboxamido)thiophene-3-carboxylic acid] the value was under 10 µM; for `O=C(O)c1c(-c2ccc(Cl)cc2)csc1NC(=O)C1Cc2ccc(F)cc2C1` (stereo not drawn) [4-(4-chlorophenyl)-2-(5-fluoro-2,3-dihydro-1H-indene-2-carboxamido)thiophene-3-carboxylic acid], under 10 µM; for `O=C(Nc1scc(-c2ccc(Cl)cc2)c1C(=O)O)c1nc2cc(F)ccc2o1` [4-(4-chlorophenyl)-2-(5-fluorobenzo[d]oxazole-2-carboxamido)thiophene-3-carboxylic acid], under 10 µM.
For `Cc1cnc(C(=O)Nc2scc(-c3ccc(Cl)cc3)c2C(=O)O)cn1` [4-(4-chlorophenyl)-2-(5-methylpyrazine-2-carboxamido)thiophene-3-carboxylic acid] the value was under 10 µM; for `Cc1cccc2nc(C(=O)Nc3scc(-c4ccc(Cl)cc4)c3C(=O)O)cnc12` [4-(4-chlorophenyl)-2-(5-methylquinoxaline-2-carboxamido)thiophene-3-carboxylic acid], under 10 µM.
In the case of `O=C(O)c1c(-c2ccc(Cl)cc2)csc1NC(=O)C1Cc2ccc([N+](=O)[O-])cc2C1` (stereo not drawn) [4-(4-chlorophenyl)-2-(5-nitro-2,3-dihydro-1H-indene-2-carboxamido)thiophene-3-carboxylic acid], the concentration for half-maximal inhibition (IC50) was under 10 µM.
Take `O=C(Nc1scc(-c2ccc(Cl)cc2)c1C(=O)O)c1ccc([N+](=O)[O-])o1` [4-(4-chlorophenyl)-2-(5-nitrofuran-2-carboxamido)thiophene-3-carboxylic acid]: the 50% inhibitory concentration (IC50) was under 10 µM.
For `O=C(Nc1scc(-c2ccc(Cl)cc2)c1C(=O)O)c1cc(-c2ccccc2)on1` [4-(4-chlorophenyl)-2-(5-phenylisoxazole-3-carboxamido)thiophene-3-carboxylic acid] the value was under 10 µM; for `O=C(CCCCc1ccccc1)Nc1scc(-c2ccc(Cl)cc2)c1C(=O)O` [4-(4-chlorophenyl)-2-(5-phenylpentanamido)thiophene-3-carboxylic acid], under 10 µM.
For `O=C(Nc1scc(-c2ccc(Cl)cc2)c1C(=O)O)c1ncc(-c2ccccc2)cn1` [4-(4-chlorophenyl)-2-(5-phenylpyrimidine-2-carboxamido)thiophene-3-carboxylic acid] the value was under 10 µM; for `O=C(Nc1scc(-c2ccc(Cl)cc2)c1C(=O)O)c1ccc(-c2ccccc2)s1` [4-(4-chlorophenyl)-2-(5-phenylthiophene-2-carboxamido)thiophene-3-carboxylic acid], under 10 µM.
For `O=C(Nc1scc(-c2ccc(Cl)cc2)c1C(=O)O)c1ccc(C(F)(F)F)nc1` [4-(4-chlorophenyl)-2-(6-(trifluoromethyl)nicotinamido)thiophene-3-carboxylic acid] the value was under 10 µM.
For the compound `O=C(Nc1scc(-c2ccc(Cl)cc2)c1C(=O)O)c1ccc(Cl)nn1` [4-(4-chlorophenyl)-2-(6-chloropyridazine-3-carboxamido)thiophene-3-carboxylic acid], the concentration for half-maximal inhibition (IC50) was under 10 µM.
To `O=C(Nc1scc(-c2ccc(Cl)cc2)c1C(=O)O)c1nc2ccc(F)cc2o1` [4-(4-chlorophenyl)-2-(6-fluorobenzo[d]oxazole-2-carboxamido)thiophene-3-carboxylic acid] belongs under 10 µM; to `COc1cccc(C(=O)Nc2scc(-c3ccc(Cl)cc3)c2C(=O)O)n1` [4-(4-chlorophenyl)-2-(6-methoxypicolinamido)thiophene-3-carboxylic acid], under 10 µM; to `Cc1ccc(C(=O)Nc2scc(-c3ccc(Cl)cc3)c2C(=O)O)cn1` [4-(4-chlorophenyl)-2-(6-methylnicotinamido)thiophene-3-carboxylic acid], under 10 µM.
On to `O=C(Nc1scc(-c2ccc(Cl)cc2)c1C(=O)O)c1nc2ccc([N+](=O)[O-])cc2s1` [4-(4-chlorophenyl)-2-(6-nitrobenzo[d]thiazole-2-carboxamido)thiophene-3-carboxylic acid], for which the half-inhibitory concentration (IC50) was under 10 µM.
In the case of `N#Cc1cccc2nc(C(=O)Nc3scc(-c4ccc(Cl)cc4)c3C(=O)O)oc12` [4-(4-chlorophenyl)-2-(7-cyanobenzo[d]oxazole-2-carboxamido)thiophene-3-carboxylic acid], the half-inhibitory concentration (IC50) was under 10 µM.
With `O=C(Nc1scc(-c2ccc(Cl)cc2)c1C(=O)O)c1nc2cccc(F)c2o1` [4-(4-chlorophenyl)-2-(7-fluorobenzo[d]oxazole-2-carboxamido)thiophene-3-carboxylic acid], the IC50 was under 10 µM.
Consider `O=C(Nc1scc(-c2ccc(Cl)cc2)c1C(=O)O)c1nc2cccc(F)c2s1` [4-(4-chlorophenyl)-2-(7-fluorobenzo[d]thiazole-2-carboxamido)thiophene-3-carboxylic acid], for which the IC50 is under 10 µM.
For `Cc1cccc2nc(C(=O)Nc3scc(-c4ccc(Cl)cc4)c3C(=O)O)oc12` [4-(4-chlorophenyl)-2-(7-methylbenzo[d]oxazole-2-carboxamido)thiophene-3-carboxylic acid] the value was under 10 µM; for `Cc1cccc2ncc(C(=O)Nc3scc(-c4ccc(Cl)cc4)c3C(=O)O)nc12` [4-(4-chlorophenyl)-2-(8-methylquinoxaline-2-carboxamido)thiophene-3-carboxylic acid], under 10 µM.
Consider `O=C(Nc1scc(-c2ccc(Cl)cc2)c1C(=O)O)c1cc2ccccc2nn1` [4-(4-chlorophenyl)-2-(cinnoline-3-carboxamido)thiophene-3-carboxylic acid], for which the IC50 is under 10 µM.
To `O=C(Nc1scc(-c2ccc(Cl)cc2)c1C(=O)O)c1ccco1` [4-(4-chlorophenyl)-2-(furan-2-carboxamido)thiophene-3-carboxylic acid] belongs under 10 µM.
Consider `O=C(Nc1scc(-c2ccc(Cl)cc2)c1C(=O)O)c1ccc2nccn2c1` [4-(4-chlorophenyl)-2-(imidazo[1,2-a]pyridine-6-carboxamido)thiophene-3-carboxylic acid], for which the IC50 was under 10 µM.
For `O=C(Nc1scc(-c2ccc(Cl)cc2)c1C(=O)O)c1cn2ccsc2n1` [4-(4-chlorophenyl)-2-(imidazo[2,1-b]thiazole-6-carboxamido)thiophene-3-carboxylic acid], the 50% inhibitory concentration (IC50) is under 10 µM.
Take `O=C(O)c1c(-c2ccc(Cl)cc2)csc1NC(=O)C1Cc2ccccc2N1` (stereo not drawn) [4-(4-chlorophenyl)-2-(indoline-2-carboxamido)thiophene-3-carboxylic acid]: the 50% inhibitory concentration (IC50) was under 10 µM.
For `O=C(O)c1c(-c2ccc(Cl)cc2)csc1NC(=O)N1Cc2ccccc2C1` [4-(4-chlorophenyl)-2-(isoindoline-2-carboxamido)thiophene-3-carboxylic acid] the value was under 10 µM.
To `O=C(Nc1scc(-c2ccc(Cl)cc2)c1C(=O)O)c1ccncc1` [4-(4-chlorophenyl)-2-(isonicotinamido)thiophene-3-carboxylic acid] belongs under 10 µM; to `O=C(Nc1scc(-c2ccc(Cl)cc2)c1C(=O)O)c1ccno1` [4-(4-chlorophenyl)-2-(isoxazole-5-carboxamido)thiophene-3-carboxylic acid], under 10 µM; to `O=C(Nc1scc(-c2ccc(Cl)cc2)c1C(=O)O)c1cc2ccccn2n1` [4-(4-chlorophenyl)-2-(pyrazolo[1,5-a]pyridine-2-carboxamido)thiophene-3-carboxylic acid], under 10 µM.
As for `O=C(Nc1scc(-c2ccc(Cl)cc2)c1C(=O)O)c1cc2ncccn2n1` [4-(4-chlorophenyl)-2-(pyrazolo[1,5-a]pyrimidine-2-carboxamido)thiophene-3-carboxylic acid], the IC50 is under 10 µM.
To `O=C(Nc1scc(-c2ccc(Cl)cc2)c1C(=O)O)c1ncc2ccccc2n1` [4-(4-chlorophenyl)-2-(quinazoline-2-carboxamido)thiophene-3-carboxylic acid] belongs under 10 µM; to `O=C(Nc1scc(-c2ccc(Cl)cc2)c1C(=O)O)c1ccc2ccccc2n1` [4-(4-chlorophenyl)-2-(quinoline-2-carboxamido)thiophene-3-carboxylic acid], under 10 µM; to `O=C(Nc1scc(-c2ccc(Cl)cc2)c1C(=O)O)c1cnc2ccccc2n1` [4-(4-chlorophenyl)-2-(quinoxaline-2-carboxamido)thiophene-3-carboxylic acid], under 10 µM.
As for `O=C(Nc1scc(-c2ccc(Cl)cc2)c1C(=O)O)c1cscn1` [4-(4-chlorophenyl)-2-(thiazole-4-carboxamido)thiophene-3-carboxylic acid], the IC50 is under 10 µM.
For `O=C(Nc1scc(-c2ccc(Cl)cc2)c1C(=O)O)c1cc2nccnc2s1` [4-(4-chlorophenyl)-2-(thieno[2,3-b]pyrazine-6-carboxamido)thiophene-3-carboxylic acid] the value was under 10 µM; for `O=C(O)c1c(-c2ccc(Cl)cc2)csc1NC(=O)c1csc2nnsc12` [4-(4-chlorophenyl)-2-(thieno[2,3-d][1,2,3]thiadiazole-6-carboxamido)thiophene-3-carboxylic acid], under 10 µM.
To `O=C(Nc1scc(-c2ccc(Cl)cc2)c1C(=O)O)c1cc2sccc2s1` [4-(4-chlorophenyl)-2-(thieno[3,2-b]thiophene-2-carboxamido)thiophene-3-carboxylic acid] belongs under 10 µM.
For `O=C(Nc1scc(-c2ccc(Cl)cc2)c1C(=O)O)c1ccsc1` [4-(4-chlorophenyl)-2-(thiophene-3-carboxamido)thiophene-3-carboxylic acid] the value was under 10 µM; for `N#Cc1ccc(-c2csc(NC(=O)CCc3ccccc3)c2C(=O)O)cc1` [4-(4-cyanophenyl)-2-(3-phenylpropanamido)thiophene-3-carboxylic acid], under 10 µM.
